System: T1, SSADH (succinic semialdehyde dehydrogenase) of germinated Tartary buckwheat
T1 construct: NAD+-dependent (printed EC 1.2.1.79 is the NADP+ class)
Experiment: NADH formation at […] nm, Lineweaver-Burk
Format: biochemical, Fagopyrum tataricum
Details: 1 mmol/L EDTA, 20 mmol/L beta-mercaptoethanol, 1 mmol/L PMSF, partially purified enzyme

| SMILES | Km (0.2 mmol/L SSA fixed, PBS pH 8.6, 30 °C) [µM] | Km (2 mmol/L NAD+, 1/15 mol/L PBS pH 8.6 (b78 prints mmol/L), 30 °C) [µM] |
| --- | --- | --- |
| NC(=O)c1ccc[n+]([C@@H]2O[C@H](COP(=O)(O)OP(=O)(O)OC[C@H]3O[C@@H](n4cnc5c(N)ncnc54)[C@H](O)[C@@H]3O)[C@@H](O)[C@H]2O)c1 [NAD^+] | 636 |  |
| O=CCCC(=O)O [SSA] |  | ~235 |

Source: paper PMC10777983, “The Optimization of Assay Conditions and Characterization of the Succinic Semialdehyde Dehydrogenase Enzyme of Germinated Tartary Buckwheat” (Foods, 2023)
